US7309701B2, “Pyridazinone derivatives as pharmaceuticals and pharmaceutical compositions containing them” (Sanofi-Aventis Deutschland GmbH, priority 2002, dated 2007)

What was measured:
Tau protein = assay: Tau-phosphorylation: inhibition of phosphorylation of the Tau protein in adult rat cortex sections; assay type: cell-based; details: inhibition of Tau phosphorylation (Ser396/404, antibody AD2), 2 h incubation at 37° C.
Protocol: The compounds' activities were determined by measuring the inhibition of phosphorylation of the Tau protein in adult rat cortex sections. The cortex sections having a thickness of 300 μm were prepared from 8-10-week old male OFA rats (Iffa-Credo), sacrificed by decapitation. They were incubated in 5 ml of DMEM medium containing pyruvate and glucose 4.5 g/l at 37° C. for 40 min. The sections were then washed twice with the medium, distributed into microtubes (50 μl in 500 μl of medium with or without test compounds), and incubated at 37° C., with stirring. Two hours later, the experiment was stopped by centrifugation. The sections were washed, sonicated and centrifuged at 18300 g, for 15 min at 4° C. The concentration of proteins in supernatant was determined by a commercial assay (BCA Protein Assay, Pierce) based on the Lowry method. The samples, denatured beforehand for 10 min at 70° C., were separated on a 4-12% Bis-Tris vertical gel in the presence of MOPS-SDS buffer and electrotransferred onto nitrocellulose membrane. Immunolabeling was performed with their monoclonal antibody AD2 which specifically recognizes the phosphorylated epitopes Ser396/404 of the Tau protein. The immunoactive proteins were visualized by adding a second antibody directed against the mouse IgG's and coupled to peroxidase and a chemiluminescent substrate. The autoradiograms obtained were finally quantified using the ‘GeneTools’ software from Syngene (GeneGnome, Ozyme) in order to determine an IC50.

human recombinant GSK-3β = human recombinant GSK-3β (Homo sapiens, UniProt P49841); assay: GSK-3β activity, AlphaScreen with primed glycogen synthase substrate peptide; assay type: biochemical; details: human recombinant GSK-3β, 10 μM ATP, 60 min at room temperature, AlphaScreen; read-out: IC50
human recombinant GSK-3β, sequence (P49841 whole entry): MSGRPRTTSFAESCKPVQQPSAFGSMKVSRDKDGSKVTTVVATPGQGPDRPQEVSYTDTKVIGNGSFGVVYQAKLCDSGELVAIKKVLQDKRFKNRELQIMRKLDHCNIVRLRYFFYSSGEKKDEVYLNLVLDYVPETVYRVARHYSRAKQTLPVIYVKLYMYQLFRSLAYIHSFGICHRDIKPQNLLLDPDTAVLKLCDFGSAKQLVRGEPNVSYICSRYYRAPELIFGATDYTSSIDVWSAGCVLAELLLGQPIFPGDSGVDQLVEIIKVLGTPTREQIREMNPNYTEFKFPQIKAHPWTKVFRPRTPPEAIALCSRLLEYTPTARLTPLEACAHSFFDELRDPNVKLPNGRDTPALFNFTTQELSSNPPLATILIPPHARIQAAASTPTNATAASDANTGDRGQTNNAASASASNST
Protocol: GSK-β activity was measured using human recombinant GSK-3β and a primed (pre-phosphorylated) substrate peptide (derived from glycogen synthase and containing the phosphorylation sites 3a, b, and c) on basis of the AlphaScreen technology in 384-well plate format (small volume plate, white, GREINER).

O=C(NCc1ccc(Cl)cc1)c1cc(-c2cccc(O)c2)n[nH]c1=O [Example 53]
IC50 (Tau protein): 19 µM | IC50 (human recombinant GSK-3β): 4400 nM

O=C(NCc1ccc(Cl)cc1)c1cc(-c2ccc(O)cc2)n[nH]c1=O [Example 40, 6-(4-Hydroxy-phenyl)-3-oxo-2,3-dihydro-pyridazine-4-carboxylic acid 4-chloro-benzylamide]
IC50 (Tau protein): 0.3 µM | IC50 (human recombinant GSK-3β): 2800 nM

O=C(NCc1ccc(N2CCOCC2)cc1)c1cc(-c2ccncc2)n[nH]c1=O [Example 17, N-(4-morpholin-4-ylbenzyl)-3-oxo-6-pyridin-4-yl-2,3-dihydropyridazine-4-carboxamide]
melting point: 252 °C | IC50 (human recombinant GSK-3β): 251 nM

O=C(NCc1ccncc1)c1cc(-c2ccncc2)n[nH]c1=O [Example 8, 3-oxo-6-pyridin-4-yl-N-(pyridin-4-ylmethyl)-2,3-dihydropyridazine-4-carboxamide]
IC50 (Tau protein): 9 µM | melting point: 254 °C

CCCCNC(=O)c1cc(-c2ccncc2)n[nH]c1=O [Example 12, 3-oxo-6-pyridin-4-yl-N-(n-butyl)-2,3-dihydropyridazine-4-carboxamide]
melting point: 209 °C

O=C(NCc1cccnc1)c1cc(-c2ccncc2)n[nH]c1=O [Example 14, 3-oxo-6-pyridin-4-yl-N-(pyridin-3-ylmethyl)-2,3-dihydropyridazine-4-carboxamide]
melting point: 262 °C | IC50 (human recombinant GSK-3β): 97 nM

O=C(NCc1ccccc1)c1cc(-c2ccc(O)cc2)n[nH]c1=O [Example 19, N-benzyl-3-oxo-6-[4-(hydroxy)phenyl]-2,3-dihydropyridazine-4-carboxamide]
IC50 (Tau protein): 4.1 µM

O=C(NCc1ccccc1)c1cc(-c2ccncc2)n[nH]c1=O [Example 3, N-benzyl-3-oxo-6-pyridin-4-yl-2,3-dihydropyridazine-4-carboxamide]
melting point: 258 °C

O=C(NCc1ccc(Cl)cc1Cl)c1cc(-c2ccc(O)cc2)n[nH]c1=O [Example 22, N-(2,4-Dichlorbenzyl)-3-oxo-6-[4-(hydroxy)phenyl]-2,3-dihydropyridazine-4-carboxylic acid]
IC50 (Tau protein): 22 µM

O=C(NCCCc1ccccc1)c1cc(-c2ccncc2)n[nH]c1=O [Example 66, 3-Oxo-6-pyridin-4-yl-2,3-dihydro-pyridazine-4-carboxylic acid (3-phenyl-propyl)-amide; compoundwith trifluoro-aceticacid]
IC50 (Tau protein): 1.1 µM | IC50 (human recombinant GSK-3β): 95 nM

O=C(NCc1ccc(Cl)cc1Cl)c1cc(-c2ccncc2)n[nH]c1=O [Example 2, N-(2,4-dichlorobenzyl)-3-oxo-6-pyridin-4-yl-2,3-dihydropyridazine-4-carboxamide]
IC50 (Tau protein): 22 µM | melting point: 233 °C | IC50 (human recombinant GSK-3β): 720 nM

O=C(NCc1ccc(Cl)cc1)c1cc(-c2ccncc2)n[nH]c1=O [Example 4, N-(4-chlorobenzyl)-3-oxo-6-pyridin-4-yl-2,3-dihydropyridazine-4-carboxamide]
IC50 (Tau protein): 13 µM | melting point: 250 °C | IC50 (human recombinant GSK-3β): 180 nM

CNc1nccc(-c2cc(C(=O)NCc3ccc(Cl)cc3)c(=O)[nH]n2)n1 [Example 34, 6-(2-Methylamino-pyrimidin-4-yl)-3-oxo-2,3-dihydro-pyridazine-4-carboxylic acid 4-chloro-benzylamide]
IC50 (Tau protein): 0.24 µM

O=C(NCc1ccc(Cl)c(Cl)c1)c1cc(-c2ccncc2)n[nH]c1=O [Example 16, N-(3,4-dichlorobenzyl)-3-oxo-6-pyridin-4-yl-2,3-dihydropyridazine-4-carboxamide]
IC50 (Tau protein): 3.5 µM | melting point: 265 °C

O=C(NCc1ccc(C(F)(F)F)cc1)c1cc(-c2ccncc2)n[nH]c1=O [Example 10, 3-oxo-6-pyridin-4-yl-N-[4-(trifluoromethyl)benzyl]-2,3-dihydropyridazine-4-carboxamide]
IC50 (Tau protein): 9.5 µM | melting point: 227 °C

O=C(NCc1ccc(Cl)cc1)c1cc(Cl)n[nH]c1=O [Example 43, 6-Chloro-3-oxo-2,3-dihydro-pyridazine-4-carboxylic acid 4-chloro-benzylamide]
IC50 (Tau protein): 2.2 µM

CCOC(=O)CCNC(=O)c1cc(-c2ccncc2)n[nH]c1=O [Example 13, Ethyl 3-[(3-oxo-6-pyridin-4-yl-2,3-dihydropyridazine-4-carbonyl)amino]propionate]
melting point: 180 °C

Cc1cc(-c2cc(C(=O)NCc3ccc(Cl)cc3)c(=O)[nH]n2)cc(C)c1O [Example 52, 6-(4-Hydroxy-3,5-dimethyl-phenyl)-3-oxo-2,3-dihydro-pyridazine-4-carboxylic acid 4-chloro-benzylamide]
IC50 (Tau protein): 19 µM | IC50 (human recombinant GSK-3β): > 10000 nM
